Measured values: patent US11230538B2, “Herbicides” (SYNGENTA PARTICIPATIONS AG, priority 2016, dated 2022)

Assays:
Type in all cases: in vivo
[1] = system: Alopecurus myosuroides (ALOMY); assay: B2 Post-emergence herbicidal activity; set-up: key: 5=total damage to plant; 0=no damage to plant; details: post-emergence application, rate 1000 g/ha, evaluated after 13 days
Procedure: (§1) Seeds of a variety of test species were sown in standard soil in pots: Triticum aestivium (TRZAW), Avena fatua (AVEFA), Alopecurus myosuroides (ALOMY), Echinochloa crus-galli (ECHCG), Lolium perenne (LOLPE), Zea Mays (ZEAMX), Abutilon theophrasti (ABUTH), Amaranthus retroflexus (AMARE) and Setaria fabenri (SETFA). After 8 days cultivation (post-emergence) under controlled conditions in a glasshouse (at 24/16° C., day/night; 14 hours light; 65% humidity), the plants were sprayed with an aqueous spray solution derived from the formulation of the technical active ingredient in acetone I water (50:50) solution containing 0.5% Tween 20 (polyoxyethelyene sorbitan monolaurate, CAS RN 9005-64-5). The test plants were then grown in a glasshouse under controlled conditions (at 24/16° C., day/night; 14 hours light; 65% humidity) and watered twice daily. After 13 days, the test was evaluated (5=total damage to plant; 0=no damage to plant).

[2] = system: Setaria fabenri (SETFA); assay: B2 Post-emergence herbicidal activity; set-up: key: 5=total damage to plant; 0=no damage to plant; details: post-emergence application, rate 1000 g/ha, evaluated after 13 days
Procedure: as §1

[3] = system: Triticum aestivium (TRZAW); assay: B2 Post-emergence herbicidal activity; set-up: key: 5=total damage to plant; 0=no damage to plant; details: post-emergence application, rate 1000 g/ha, evaluated after 13 days
Procedure: as §1

[4] = system: Lolium perenne (LOLPE); assay: B1 Pre-emergence herbicidal activity; set-up: key to Pre-emergence herbicidal activity, LOLPE (damage score 0-5): 5=total damage to plant; 0=no damage to plant; details: pre-emergence application, rate 1000 g/ha, evaluated after 13 days
Procedure: as §1, with “fabenr” for “fabenri”, “After” for “After 8 days”, “for one day (pre-emergence)” for “(post-emergence)”

[5] = system: Echinochloa crus-galli (ECHCG); assay: B1 Pre-emergence herbicidal activity; details: pre-emergence application, rate 1000 g/ha, evaluated after 13 days
Procedure: as §1, with “fabenr” for “fabenri”, “After” for “After 8 days”, “for one day (pre-emergence)” for “(post-emergence)”

[6] = system: Alopecurus myosuroides (ALOMY); assay: B1 Pre-emergence herbicidal activity; set-up: key: 5=total damage to plant; 0=no damage to plant; details: pre-emergence application, rate 1000 g/ha, evaluated after 13 days
Procedure: as §1, with “fabenr” for “fabenri”, “After” for “After 8 days”, “for one day (pre-emergence)” for “(post-emergence)”

[7] = system: Avena fatua (AVEFA); assay: B1 Pre-emergence herbicidal activity; set-up: key: 5=total damage to plant; 0=no damage to plant; details: pre-emergence application, rate 1000 g/ha, evaluated after 13 days
Procedure: as §1, with “fabenr” for “fabenri”, “After” for “After 8 days”, “for one day (pre-emergence)” for “(post-emergence)”

[8] = system: Triticum aestivium (TRZAW); assay: B1 Pre-emergence herbicidal activity; set-up: key: 5=total damage to plant; 0=no damage to plant; details: pre-emergence application, rate 1000 g/ha, evaluated after 13 days
Procedure: as §1, with “fabenr” for “fabenri”, “After” for “After 8 days”, “for one day (pre-emergence)” for “(post-emergence)”

[9] = system: Echinochloa crus-galli (ECHCG); assay: B2 Post-emergence herbicidal activity; details: post-emergence application, rate 1000 g/ha, evaluated after 13 days
Procedure: as §1

[10] = system: Setaria fabenr (SETFA); assay: B1 Pre-emergence herbicidal activity; set-up: key to Pre-emergence herbicidal activity, SETFA (damage score 0-5): 5=total damage to plant; 0=no damage to plant; details: pre-emergence application, rate 1000 g/ha, evaluated after 13 days
Procedure: as §1, with “fabenr” for “fabenri”, “After” for “After 8 days”, “for one day (pre-emergence)” for “(post-emergence)”

SMILES	Post-emergence herbicidal activity, ALOMY (damage score 0-5) [1]	Post-emergence herbicidal activity, SETFA (damage score 0-5) [2]	Post-emergence herbicidal activity, TRAZW (damage score 0-5) [3]	Pre-emergence herbicidal activity, LOLPE (damage score 0-5) [4]	Pre-emergence herbicidal activity, ECHCG (damage score 0-5) [5]	Pre-emergence herbicidal activity, ALOMY (damage score 0-5) [6]	Pre-emergence herbicidal activity, AVEFA (damage score 0-5) [7]	Pre-emergence herbicidal activity, TRAZW (damage score 0-5) [8]	Post-emergence herbicidal activity, ECHCG (damage score 0-5) [9]	Pre-emergence herbicidal activity, SETFA (damage score 0-5) [10]
CCC(=O)N(COCC(F)(F)F)c1ccc(-c2cncc(F)c2)nc1C(F)(F)F [Compound C72]	0	3	0	0	1	0	0	0	2	4
CC(C)C(=O)N(CC1CC1)c1ccc(-c2cncc(F)c2)nc1C(F)(F)F [Compound C87]	0	4	0	0	2	0	0	0	3	5
O=C(c1ccccc1)N(Cc1cnc(Cl)s1)c1ccc(-c2cncc(F)c2)nc1C(F)(F)F [Compound C78]	0	3	0	0	1	0	0	0	1	2
CC(C)C(=O)N(CC(=O)N(C)C)c1ccc(-c2cncc(F)c2)nc1C(F)(F)F [Compound C107]	0	5	0	0	3	0	1	0	4	5
COCC(=O)N(Cc1cnc(Cl)s1)c1ccc(-c2cncc(F)c2)nc1C(F)(F)F [Compound C83]	0	3	0	1	2	0	1	0	2	4
CCC(=O)N(CC=C(C)C)c1ccc(-c2cncc(F)c2)nc1C(F)(F)F [Compound C73]	0	5	0	0	4	0	2	0	4	5
COCC(=O)N(COCC(C)(C)C)c1ccc(-c2cncc(F)c2)nc1C(F)(F)F [Compound C81]	0	5	0	2	3	0	1	0	4	5
COCC(=O)N(CC(C)C)c1ccc(-c2cncc(F)c2)nc1C(F)(F)F [Compound C79]	0	3	0	2	3	0	1	0	3	5
CC(C)C(=O)N(COCC(C)(C)C)c1ccc(-c2cncc(F)c2)nc1C(F)(F)F [Compound C89]	0	4	0	0	3	0	1	0	4	4
CCC(=O)N(c1ccc(-c2cncc(F)c2)nc1C(F)(F)F)C(C)C [Compound C100]	0	5	0	1	3	0	1	0	4	5
